Values of other authors as cited in patent US11890366B2, “Method for dyeing keratin material, comprising the use of an organic C1-C6 alkoxy silane and a copolymer of styrene and maleic acid (anhydride)” (Henkel AG & Co. KGaA, priority 2019, dated 2024).

With `CCN(Cc1cccc(S(=O)(=O)[O-])c1)c1ccc(C(=C2C=CC(=[N+](CC)Cc3cccc(S(=O)(=O)[O-])c3)C=C2)c2ccccc2S(=O)(=O)[O-])cc1.[Na+].[Na+]` [Acid Blue 9] as the compound, how does the water solubility (25° C.) read?
Its water solubility is “greater than 20 % by weight”.

With `O=S(=O)([O-])c1ccc(N=Nc2c(O)ccc3ccccc23)cc1.[Na+]` [Acid Orange 7, sodium salt of 4-[(2-hydroxy-1-naphthyl)azo]benzenesulfonate] as the compound, how does the solubility in water (25° C.) read?
Its solubility in water is “more than 7 g/L”.

With `Nc1cc(S(=O)(=O)[O-])cc2cc(S(=O)(=O)[O-])c(N=Nc3ccccc3)c(O)c12.[Na+].[Na+]` [Acid Red 33, dinatrium salt of 5-amino-4-hydroxy-3-(phenylazo)-naphthalene-2,7-disulphonate] as the compound, how does the solubility in water (25° C.) read?
The solubility in water was 2.5 mg/mL.

Which solubility in water (25° C.) does the source give for `O=C([O-])c1c(Cl)c(Cl)c(Cl)c(Cl)c1-c1c2c(Br)cc(=O)c(Br)c-2oc2c(Br)c(O)cc(Br)c12.O=C([O-])c1c(Cl)c(Cl)c(Cl)c(Cl)c1-c1c2c(Br)cc(=O)c(Br)c-2oc2c(Br)c(O)cc(Br)c12.[Na+].[Na+]` [Acid Red 92, disodium salt of 3,4,5,6-tetrachloro-2-(1,4,5,8-tetrabromo-6-hydroxy-3-oxoxanthen-9-yl)benzoic acid] here?
Its solubility in water is “greater than 10 g/L”.

For `O=C([O-])C1=NN(c2ccc(S(=O)(=O)[O-])cc2)C(=O)C1N=Nc1ccc(S(=O)(=O)[O-])cc1.[Na+].[Na+].[Na+]` (centres unmarked) [Acid Yellow 23, trisodium salt of 4,5-dihydro-5-oxo-1-(4-sulfophenyl)-4-((4-sulfophenyl)azo)-1H-pyrazole-3-carboxylic acid], which “solubility in water (in words)” value (water at 25° C.) is on record?
Its value is “readily soluble”.
